Measurements reported in article PMC3928307, “Long-Term Activation upon Brief Exposure to Xanomleline Is Unique to M1 and M4 Subtypes of Muscarinic Acetylcholine Receptors” (PLoS ONE, 2014).

Key:
[1] = target: T1, hM2 muscarinic receptor (Homo sapiens, UniProt P08172); experiment: Fura-2 intracellular calcium microfluorometry, CHO cells; assay type: cell-based; conditions: read-out: oxotremorine / pEC50 (converted)
T1 construct: gene CHRM2; full-length receptor stably expressed in CHO cells; human G16 transiently co-transfected for calcium assay
T1 sequence (P08172 1-466): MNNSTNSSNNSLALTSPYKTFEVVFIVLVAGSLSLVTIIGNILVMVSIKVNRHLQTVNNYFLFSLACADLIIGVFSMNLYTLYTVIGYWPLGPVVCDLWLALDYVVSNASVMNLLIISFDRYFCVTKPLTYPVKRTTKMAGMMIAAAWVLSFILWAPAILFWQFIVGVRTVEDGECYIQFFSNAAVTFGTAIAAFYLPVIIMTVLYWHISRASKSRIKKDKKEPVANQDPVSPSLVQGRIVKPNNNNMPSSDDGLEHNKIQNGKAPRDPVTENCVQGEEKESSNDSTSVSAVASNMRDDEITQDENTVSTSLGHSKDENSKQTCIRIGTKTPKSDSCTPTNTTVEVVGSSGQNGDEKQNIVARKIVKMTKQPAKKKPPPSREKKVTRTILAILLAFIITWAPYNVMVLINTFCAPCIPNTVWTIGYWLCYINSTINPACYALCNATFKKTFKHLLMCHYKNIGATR
Excerpt: Fura-2 intracellular calcium microfluorometry, CHO cells on hM2 muscarinic receptor

[2] = target: T2, hM5 muscarinic receptor (Homo sapiens, UniProt P08912); experiment: as above; assay type: cell-based; conditions: read-out: oxotremorine / pEC50 (converted)
T2 construct: gene CHRM5; full-length receptor stably expressed in CHO cells (Missouri S&T cDNA Resource Center)
T2 sequence (P08912 1-532): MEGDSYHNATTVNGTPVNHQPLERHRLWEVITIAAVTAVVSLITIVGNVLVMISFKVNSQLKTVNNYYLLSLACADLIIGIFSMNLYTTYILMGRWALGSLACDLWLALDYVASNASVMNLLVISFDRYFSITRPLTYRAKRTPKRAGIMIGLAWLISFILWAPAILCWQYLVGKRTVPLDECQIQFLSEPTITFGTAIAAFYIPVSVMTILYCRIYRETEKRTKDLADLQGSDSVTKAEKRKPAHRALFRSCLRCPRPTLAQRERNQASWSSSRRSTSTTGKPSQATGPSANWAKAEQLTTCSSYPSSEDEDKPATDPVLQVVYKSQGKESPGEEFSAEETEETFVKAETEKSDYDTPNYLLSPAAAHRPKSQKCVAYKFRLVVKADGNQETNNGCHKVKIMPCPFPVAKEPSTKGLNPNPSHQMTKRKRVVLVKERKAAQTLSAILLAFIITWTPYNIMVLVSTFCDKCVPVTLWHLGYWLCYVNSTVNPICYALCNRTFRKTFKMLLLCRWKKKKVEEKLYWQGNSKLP
Excerpt: Fura-2 intracellular calcium microfluorometry, CHO cells on hM5 muscarinic receptor

[3] = target: T3, hM1 muscarinic receptor (Homo sapiens, UniProt P11229); experiment: cell-based
T3 construct: gene CHRM1
T3 sequence (P11229 1-460): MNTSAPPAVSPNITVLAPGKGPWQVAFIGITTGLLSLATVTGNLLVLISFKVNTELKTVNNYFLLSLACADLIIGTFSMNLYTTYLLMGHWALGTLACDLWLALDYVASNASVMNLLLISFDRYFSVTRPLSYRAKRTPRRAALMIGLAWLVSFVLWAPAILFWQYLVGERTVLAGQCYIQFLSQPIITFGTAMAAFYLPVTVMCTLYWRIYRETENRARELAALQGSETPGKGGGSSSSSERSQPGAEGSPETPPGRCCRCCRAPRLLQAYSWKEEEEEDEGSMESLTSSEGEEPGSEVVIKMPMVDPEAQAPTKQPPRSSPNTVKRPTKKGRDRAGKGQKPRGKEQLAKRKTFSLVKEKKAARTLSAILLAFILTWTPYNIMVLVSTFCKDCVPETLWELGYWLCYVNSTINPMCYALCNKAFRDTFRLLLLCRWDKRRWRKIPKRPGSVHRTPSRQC
Excerpt: Fura-2 intracellular calcium microfluorometry, CHO cells on hM1 muscarinic receptor

[4] = target: T4, hM3 muscarinic receptor (Homo sapiens, UniProt P20309); experiment: Fura-2 intracellular calcium microfluorometry, CHO cells; assay type: cell-based; conditions: read-out: oxotremorine / pEC50 (converted)
T4 construct: gene CHRM3; full-length receptor stably expressed in CHO cells (Missouri S&T cDNA Resource Center)
Excerpt: Fura-2 intracellular calcium microfluorometry, CHO cells on hM3 muscarinic receptor

[5] = target: T5, hM4 muscarinic receptor (Homo sapiens, UniProt P08173); experiment: cell-based
T5 construct: gene CHRM4
T5 sequence (P08173 1-479): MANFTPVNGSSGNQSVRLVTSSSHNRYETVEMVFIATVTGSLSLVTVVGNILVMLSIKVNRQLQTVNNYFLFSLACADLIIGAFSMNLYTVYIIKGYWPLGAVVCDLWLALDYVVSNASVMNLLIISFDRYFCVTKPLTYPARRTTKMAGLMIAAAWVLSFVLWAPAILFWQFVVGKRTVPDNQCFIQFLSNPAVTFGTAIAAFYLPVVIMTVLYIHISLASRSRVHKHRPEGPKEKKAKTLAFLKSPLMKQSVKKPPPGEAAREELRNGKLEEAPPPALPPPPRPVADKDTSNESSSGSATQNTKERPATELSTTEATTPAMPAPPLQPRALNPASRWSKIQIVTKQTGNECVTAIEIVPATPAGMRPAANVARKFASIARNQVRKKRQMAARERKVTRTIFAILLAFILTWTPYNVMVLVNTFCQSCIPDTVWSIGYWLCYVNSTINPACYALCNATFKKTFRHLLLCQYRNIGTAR

T4 sequence (P20309 whole entry): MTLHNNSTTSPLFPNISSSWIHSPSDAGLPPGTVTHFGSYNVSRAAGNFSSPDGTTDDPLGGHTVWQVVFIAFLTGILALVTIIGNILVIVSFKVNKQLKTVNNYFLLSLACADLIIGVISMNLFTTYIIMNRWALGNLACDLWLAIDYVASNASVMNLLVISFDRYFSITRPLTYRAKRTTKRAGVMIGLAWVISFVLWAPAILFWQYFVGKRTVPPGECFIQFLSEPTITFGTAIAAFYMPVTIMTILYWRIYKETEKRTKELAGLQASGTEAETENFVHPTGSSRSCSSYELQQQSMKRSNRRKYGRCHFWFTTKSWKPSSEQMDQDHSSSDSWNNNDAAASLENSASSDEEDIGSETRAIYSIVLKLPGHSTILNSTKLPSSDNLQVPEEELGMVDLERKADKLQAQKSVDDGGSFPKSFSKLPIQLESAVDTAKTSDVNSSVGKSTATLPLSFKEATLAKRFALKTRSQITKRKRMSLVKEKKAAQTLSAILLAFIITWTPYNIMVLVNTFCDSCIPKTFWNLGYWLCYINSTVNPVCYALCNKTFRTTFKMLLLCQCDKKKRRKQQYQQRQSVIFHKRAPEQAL

O=C1CCCN1CC#CCN1CCCC1 [oxotremorine] showed an EC50 [1] of 64.6 nM, an EC50 [2] of 51.3 nM and an EC50 [3] of 46.8 nM. It also gave an EC50 [4] of 46.8 nM and an EC50 [5] of 67.6 nM.
